Counter-ions that a name gives are not always drawn.
Target: T1, Na-H exchange (Rattus norvegicus, UniProt P26431)
T1 construct: The blood was centrifuged at 3000 r.p.m. for […] to obtain platelet rich plasma (PRP); from tissue; host or cells: platelets in platelet rich plasma from the blood of male Wistar rats
Experiment: Inhibition of platelet swelling (light transmittance of platelet rich plasma after sodium propionate), indicator of Na-H exchange inhibition
Type: cell-based, Wistar rats
Details: rat PRP, value one minute after sodium propionate solution (pH 6.7, 37 °C), difference between 1% DMSO and HOE-642 (10^-5 M) taken as 100
Procedure: Male Wistar rats (350-450 g) were anesthetized with sodium pentobarbital (50 mg/kg, i.p.). Using a disposable syringe pre-filled with 1.5 ml of a 3.8% citric acid solution, 8.5 ml of blood was collected from the abdominal aorta. The blood was centrifuged at 3000 r.p.m. for […] to obtain platelet rich plasma (PRP). The number of platelets in the PRP was counted by an automatic hemocytometer (Sysmex 2500, TOA Medical Electronics). The PRP was diluted with physiological saline to make the concentration of 40 x 10^4 platelets per microliter. A platelet aggregometer (Hematoracer, Niko Bioscience) was used for mesurement of the platelet swelling. 200 Microliters of the PRP was poured into a cuvette and 600 µl of a sodium propionate solution (Na propionate 135, glucose 10: HEPES 20, CaCl2 1, MgCl2 1, Units mM, pH 6.7) was added while stirring at 37 °C. The change in the light transmittance of PRP which was an indicator of the platelet swelling was recorded on a plotter. The test compound was added 3 minutes before addition of the sodium propionate solution. Test compounds were dissolved in dimethyl sulfoxide (DMSO). The final concentration of DMSO was adjusted to 1%. The values obtained one minute after addition of the sodium propionate solution were subjected to analysis. The rate of the inhibition of the test compound on the increase of the light transmittance was calculated designating the difference obtained between the treatments with 1% DMSO and HOE-642 (10^-5 M) as 100. […]

T1 sequence (P26431 whole entry): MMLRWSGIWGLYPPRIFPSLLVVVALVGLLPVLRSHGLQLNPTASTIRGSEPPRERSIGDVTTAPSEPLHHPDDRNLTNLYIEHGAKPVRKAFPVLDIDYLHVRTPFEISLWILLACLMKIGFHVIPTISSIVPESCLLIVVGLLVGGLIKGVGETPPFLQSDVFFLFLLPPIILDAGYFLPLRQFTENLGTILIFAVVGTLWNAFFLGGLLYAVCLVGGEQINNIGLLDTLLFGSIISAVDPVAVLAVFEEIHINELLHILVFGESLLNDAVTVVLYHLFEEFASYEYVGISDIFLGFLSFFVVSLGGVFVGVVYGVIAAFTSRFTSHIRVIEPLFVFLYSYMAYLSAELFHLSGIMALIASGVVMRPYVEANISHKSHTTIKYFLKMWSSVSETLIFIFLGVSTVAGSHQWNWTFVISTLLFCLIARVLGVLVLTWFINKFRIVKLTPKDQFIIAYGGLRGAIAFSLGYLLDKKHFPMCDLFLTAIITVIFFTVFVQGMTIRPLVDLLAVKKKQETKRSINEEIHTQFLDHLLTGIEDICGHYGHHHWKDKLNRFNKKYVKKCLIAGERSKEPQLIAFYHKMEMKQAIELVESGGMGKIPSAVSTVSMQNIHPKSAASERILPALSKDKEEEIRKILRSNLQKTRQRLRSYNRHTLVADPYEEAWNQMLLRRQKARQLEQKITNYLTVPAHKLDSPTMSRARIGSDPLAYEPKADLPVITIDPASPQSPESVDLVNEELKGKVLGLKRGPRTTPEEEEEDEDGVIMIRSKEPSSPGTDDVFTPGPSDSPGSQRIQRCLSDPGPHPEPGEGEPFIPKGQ

Row | Compound | Inhibitory ratio (%) (1µM) | Inhibitory ratio (%) (3µM)
1 | 8-methyl-4-(2-methylphenyl)phthalazin-1-ylguanidine [Compound 44] | 55 | 73
2 | NC(N)=Nc1nnc(-c2ccccc2)c2cccc(Br)c12 [Compound 13, 8-bromo-4-phenylphthalazin-1-ylguanidine] | 60 | 99
3 | Cc1ccccc1-c1nnc(N=C(N)N)c2c(Br)cccc12 [Compound 24, 8-bromo-4-(2-methylphenyl)phthalazin-1-ylguanidine] | 62 | 78
4 | NC(N)=Nc1nnc(-c2ccc(F)cc2)c2cccc(I)c12 [Compound 36, 4-(4-fluorophenyl)-8-iodophthalazin-1-ylguanidine] | 58 | 78
5 | Cc1ccccc1-c1nnc(N=C(N)N)c2c(I)cccc12 [Compound 28, 8-iodo-4-(2-methylphenyl)phthalazin-1-ylguanidine] | 66 | 96
6 | NC(N)=Nc1nnc(-c2ccccc2)c2cccc(I)c12 [Compound 4, 8-iodo-4-phenylphthalazin-1-ylguanidine hydrochloride] | 66 | 78

From patent EP0825187A1, “Condensed pyridazinyl guanidines, their production and use” (TAKEDA CHEMICAL INDUSTRIES, LTD., priority 1996, dated 1998)
